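Results reflect a 48-hour exposure of cells in 96-well plates to compound at five concentrations. GI50 is the concentration that inhibits growth by half.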 Activity calls are given as the source filed them. No stated cut-off is given here; in the data, active = GI50 up to about 1.1 µM and inactive = higher.
How the values were obtained:
Experiment in all cases: NCI anticancer screen, dose series, 48 h
HCT-116 = tested on: HCT-116
COLO 205 = tested on: COLO 205
SW-620 = tested on: SW-620
Hs-578T = tested on: Hs-578T
NCI/ADR-RES = tested on: NCI/ADR-RES
EKVX = tested on: EKVX
M14 = tested on: M14
SR = tested on: SR
LOX IMVI = tested on: LOX IMVI
CCRF-CEM = tested on: CCRF-CEM
PC-3 = tested on: PC-3
SK-OV-3 = tested on: SK-OV-3
OVCAR-8 = tested on: OVCAR-8
NCI-H226 = tested on: NCI-H226
MDA-MB-231 = tested on: MDA-MB-231
ACHN = tested on: ACHN
HOP-62 = tested on: HOP-62
A549 = tested on: A549
RXF 393 = tested on: RXF 393
UO-31 = tested on: UO-31
K562 = tested on: K562
SK-MEL-5 = tested on: SK-MEL-5
A498 = tested on: A498
SK-MEL-2 = tested on: SK-MEL-2
T47D = tested on: T47D
HT-29 = tested on: HT-29
UACC-62 = tested on: UACC-62
U-251 = tested on: U-251
TK-10 = tested on: TK-10
CAKI-1 = tested on: CAKI-1
DU-145 = tested on: DU-145
SF-295 = tested on: SF-295
SNB-75 = tested on: SNB-75
SN12C = tested on: SN12C
OVCAR-4 = tested on: OVCAR-4
SNB-19 = tested on: SNB-19
SF-539 = tested on: SF-539
HL-60 = tested on: HL-60
NCI-H460 = tested on: NCI-H460
MCF7 = tested on: MCF7
MDA-MB-435 = tested on: MDA-MB-435
HOP-92 = tested on: HOP-92
KM12 = tested on: KM12
HCC 2998 = tested on: HCC 2998
HCT-15 = tested on: HCT-15
SK-MEL-28 = tested on: SK-MEL-28
BT-549 = tested on: BT-549
NCI-H522 = tested on: NCI-H522
Malme-3M = tested on: Malme-3M
NCI-H23 = tested on: NCI-H23
OVCAR-3 = tested on: OVCAR-3
MOLT-4 = tested on: MOLT-4
SF-268 = tested on: SF-268
OVCAR-5 = tested on: OVCAR-5
MDA-N = tested on: MDA-N
UACC-257 = tested on: UACC-257
786-0 = tested on: 786-0
IGROV-1 = tested on: IGROV-1
RPMI-8226 = tested on: RPMI-8226

Q: What does the source list for `O=C1CSC(c2cccc(Oc3ccccc3)c2)N1c1cccc(Cl)c1Cl` (stereo not given)?
A: GI50 (HCT-116): 21.2 µM (inactive); GI50 (COLO 205): 20 µM (inactive); GI50 (SW-620): 29.1 µM (inactive); GI50 (Hs-578T): 27.8 µM (inactive); GI50 (NCI/ADR-RES): 21.9 µM (inactive); GI50 (EKVX): 25.2 µM (inactive); GI50 (M14): 40.4 µM (inactive); GI50 (SR): 19.8 µM (inactive); GI50 (LOX IMVI): 13.6 µM (inactive); GI50 (CCRF-CEM): 18.5 µM (inactive); GI50 (PC-3): 25.7 µM (inactive); GI50 (SK-OV-3): 65.9 µM (inactive); GI50 (OVCAR-8): 19.8 µM (inactive); GI50 (NCI-H226): 28.5 µM (inactive); GI50 (MDA-MB-231): 22.3 µM (inactive); GI50 (ACHN): 20.7 µM (inactive); GI50 (HOP-62): 41.4 µM (inactive); GI50 (A549): > 100 µM (inactive); GI50 (RXF 393): 57.1 µM (inactive); GI50 (UO-31): 36.9 µM (inactive); GI50 (K562): 20.4 µM (inactive); GI50 (SK-MEL-5): 18.4 µM (inactive); GI50 (A498): 26.1 µM (inactive); GI50 (SK-MEL-2): 18.1 µM (inactive); GI50 (T47D): 35.8 µM (inactive); GI50 (HT-29): 22.4 µM (inactive); GI50 (UACC-62): 17.8 µM (inactive); GI50 (U-251): 18.2 µM (inactive); GI50 (TK-10): 34.6 µM (inactive); GI50 (CAKI-1): 65.2 µM (inactive); GI50 (DU-145): 45 µM (inactive); GI50 (SF-295): 39.5 µM (inactive); GI50 (SNB-75): 41 µM (inactive); GI50 (SN12C): 31.5 µM (inactive); GI50 (OVCAR-4): 23.2 µM (inactive); GI50 (SNB-19): 42.8 µM (inactive); GI50 (SF-539): 22.9 µM (inactive); GI50 (HL-60): 22.7 µM (inactive); GI50 (NCI-H460): 26 µM (inactive); GI50 (MCF7): 13.7 µM (inactive); GI50 (MDA-MB-435): 13.7 µM (inactive); GI50 (HOP-92): 12.3 µM (inactive); GI50 (KM12): 26.7 µM (inactive); GI50 (HCC 2998): 12.3 µM (inactive); GI50 (HCT-15): 19.5 µM; GI50 (SK-MEL-28): 50 µM (inactive); GI50 (BT-549): 19.9 µM (inactive); GI50 (NCI-H522): 20.7 µM (inactive); GI50 (Malme-3M): 30.4 µM (inactive); GI50 (NCI-H23): 27.5 µM (inactive); GI50 (OVCAR-3): 30.5 µM (inactive); GI50 (MOLT-4): 22.5 µM (inactive); GI50 (SF-268): 23.6 µM (inactive); GI50 (OVCAR-5): 33.5 µM (inactive); GI50 (MDA-N): 21 µM (inactive); GI50 (UACC-257): 24.4 µM (inactive); GI50 (786-0): 27.7 µM (inactive)

Q: Which results are given for `Cc1cc(=O)oc2c(C)c(O)ccc12`?
A: GI50 (IGROV-1): > 100 µM (inactive); GI50 (HCT-116): > 100 µM (inactive); GI50 (COLO 205): > 100 µM (inactive); GI50 (RPMI-8226): 62.1 µM (inactive); GI50 (SW-620): > 100 µM (inactive); GI50 (Hs-578T): > 100 µM (inactive); GI50 (NCI/ADR-RES): > 100 µM (inactive); GI50 (EKVX): > 100 µM (inactive); GI50 (M14): > 100 µM (inactive); GI50 (SR): > 100 µM (inactive); GI50 (LOX IMVI): > 100 µM (inactive); GI50 (CCRF-CEM): > 100 µM (inactive); GI50 (PC-3): > 100 µM (inactive); GI50 (OVCAR-8): > 100 µM (inactive); GI50 (NCI-H226): > 100 µM (inactive); GI50 (MDA-MB-231): > 100 µM (inactive); GI50 (ACHN): > 100 µM (inactive); GI50 (HOP-62): > 100 µM (inactive); GI50 (A549): > 100 µM (inactive); GI50 (RXF 393): > 100 µM (inactive); GI50 (UO-31): 22.4 µM (inactive); GI50 (K562): > 100 µM (inactive); GI50 (SK-MEL-5): > 100 µM (inactive); GI50 (A498): 78.9 µM (inactive); GI50 (SK-MEL-2): > 100 µM (inactive); GI50 (T47D): > 100 µM (inactive); GI50 (HT-29): > 100 µM (inactive); GI50 (UACC-62): 99.3 µM (inactive); GI50 (U-251): > 100 µM (inactive); GI50 (CAKI-1): 55.6 µM (inactive); GI50 (DU-145): > 100 µM (inactive); GI50 (SF-295): > 100 µM (inactive); GI50 (SNB-75): > 100 µM (inactive); GI50 (SN12C): > 100 µM (inactive); GI50 (OVCAR-4): > 100 µM (inactive); GI50 (SNB-19): > 100 µM (inactive); GI50 (SF-539): > 100 µM (inactive); GI50 (HL-60): 48.6 µM (inactive); GI50 (NCI-H460): > 100 µM (inactive); GI50 (MCF7): > 100 µM (inactive); GI50 (MDA-MB-435): > 100 µM (inactive); GI50 (HOP-92): > 100 µM (inactive); GI50 (KM12): > 100 µM (inactive); GI50 (HCC 2998): > 100 µM (inactive); GI50 (HCT-15): > 100 µM; GI50 (SK-MEL-28): > 100 µM (inactive); GI50 (BT-549): 35.4 µM (inactive); GI50 (NCI-H522): > 100 µM (inactive); GI50 (Malme-3M): > 100 µM (inactive); GI50 (NCI-H23): > 100 µM (inactive); GI50 (OVCAR-3): > 100 µM (inactive); GI50 (MOLT-4): 89.1 µM (inactive); GI50 (SF-268): > 100 µM (inactive); GI50 (OVCAR-5): > 100 µM (inactive); GI50 (MDA-N): > 100 µM (inactive); GI50 (UACC-257): > 100 µM (inactive); GI50 (786-0): > 100 µM (inactive)

Q: Which results are given for `Cc1cc(=O)oc2c(CN3CCCCC3)c(O)ccc12`?
A: GI50 (IGROV-1): > 100 µM (inactive); GI50 (HCT-116): > 100 µM (inactive); GI50 (COLO 205): > 100 µM (inactive); GI50 (RPMI-8226): > 100 µM (inactive); GI50 (SW-620): > 100 µM (inactive); GI50 (Hs-578T): > 100 µM (inactive); GI50 (NCI/ADR-RES): > 100 µM (inactive); GI50 (EKVX): > 100 µM (inactive); GI50 (M14): > 100 µM (inactive); GI50 (SR): > 100 µM (inactive); GI50 (LOX IMVI): > 100 µM (inactive); GI50 (CCRF-CEM): > 100 µM (inactive); GI50 (PC-3): > 100 µM (inactive); GI50 (OVCAR-8): > 100 µM (inactive); GI50 (NCI-H226): > 100 µM (inactive); GI50 (MDA-MB-231): > 100 µM (inactive); GI50 (ACHN): > 100 µM (inactive); GI50 (HOP-62): > 100 µM (inactive); GI50 (A549): > 100 µM (inactive); GI50 (RXF 393): > 100 µM (inactive); GI50 (K562): > 100 µM (inactive); GI50 (SK-MEL-5): > 100 µM (inactive); GI50 (A498): > 100 µM (inactive); GI50 (SK-MEL-2): > 100 µM (inactive); GI50 (T47D): > 100 µM (inactive); GI50 (HT-29): > 100 µM (inactive); GI50 (UACC-62): > 100 µM (inactive); GI50 (U-251): > 100 µM (inactive); GI50 (TK-10): > 100 µM (inactive); GI50 (CAKI-1): > 100 µM (inactive); GI50 (DU-145): > 100 µM (inactive); GI50 (SF-295): > 100 µM (inactive); GI50 (SNB-75): > 100 µM (inactive); GI50 (SN12C): > 100 µM (inactive); GI50 (OVCAR-4): > 100 µM (inactive); GI50 (SNB-19): > 100 µM (inactive); GI50 (SF-539): > 100 µM (inactive); GI50 (HL-60): > 100 µM (inactive); GI50 (NCI-H460): > 100 µM (inactive); GI50 (MCF7): > 100 µM (inactive); GI50 (MDA-MB-435): > 100 µM (inactive); GI50 (HOP-92): > 100 µM (inactive); GI50 (HCC 2998): > 100 µM (inactive); GI50 (HCT-15): > 100 µM; GI50 (SK-MEL-28): > 100 µM (inactive); GI50 (BT-549): > 100 µM (inactive); GI50 (NCI-H522): > 100 µM (inactive); GI50 (Malme-3M): > 100 µM (inactive); GI50 (NCI-H23): > 100 µM (inactive); GI50 (OVCAR-3): > 100 µM (inactive); GI50 (MOLT-4): > 100 µM (inactive); GI50 (SF-268): > 100 µM (inactive); GI50 (OVCAR-5): > 100 µM (inactive); GI50 (MDA-N): > 100 µM (inactive); GI50 (UACC-257): > 100 µM (inactive); GI50 (786-0): > 100 µM (inactive)

— ChEMBL document CHEMBL1201862, “PubChem BioAssay data set” (2004)
